The text below walks through data of publication PMC9658586, “1,4-Naphthoquinone Motif in the Synthesis of New Thiopyrano[2,3-d]thiazoles as Potential Biologically Active Compounds” (Molecules, 2022).

Structures are written as SMILES. pIC50: −log10 of the molar value. Where two headings read alike, the source gives them in different places.

Assay [1] deals with isolated normal human peripheral blood lymphocytes. Description: MTT cell viability assay, isolated lymphocytes. In kind it is cell-based. Conditions: 72 h, MTT, normal human peripheral blood lymphocytes, read-out: IC50, Isolated lymphocytes. The protocol: We continued the cytotoxicity study of synthesized derivatives 3.1–3.6 toward tumor and pseudo-normal cells in vitro. The MTT cell viability assay was performed 72 h after cells treatment with various concentrations of studied compounds and doxorubicin, a reference drug. […] The THP-1 cells, monocytes isolated from peripheral blood from an acute monocytic leukemia patient, were also sensitive to the 3.6 treatment. […] The 3.6 inhibited the viability of epidermoid carcinoma (KB3-1 and its ABCB1-overexpressing subline KBC-1) and colon carcinoma (HCT116wt and its p53 knockdown subline HCT116 p53-/-) cells. It is known that ABCB1 (P-glycoprotein), MRP1/ABCC1 (multidrug resistance protein 1), and BCRP/BCG2 (breast cancer resistance protein) have been reported to be key players in resistance to chemotherapy. […] Thus, the p53 status of colon carcinoma cells influenced the anti-tumor effects of the studied 3,5,10,11-tetrahydro-2H-benzo[6,7]thiochromeno[2,3-d][1, 3]thiazole-2,5,10-trione. The p53 has diverse mutations in almost all human tumors, stimulating their hyper-proliferation, invasion/metastasis, and thus, influencing the potency of various chemotherapeutics (i.e., platins and anti-metabolites). […] Based on our findings, one can assume a p53-dependent mode of action for 3.6 toward colon cancer cells.
MTT assay was used to examine the viability of tumor and pseudo-normal cells after their treatment with studied thiopyrano[2,3-d]thiazole derivatives and doxorubicin (Actavis S.R.L., Bucharest, Romania). Cells were seeded in 96-well plates at a density of 3–5 × 103. After 24 h, cells were treated with compound […], 1,4-NQ (0.1–100 µM), and doxorubicin (0.1–100 µM). After incubation for 72 h, MTT reagent (Sigma-Aldrich, St. Louis, MO, USA) was added to each well, according to the Sigma-Aldrich protocol. An absorbance Reader BioTek ELx800 (BioTek Instruments, Inc., Winooski, VT, USA) was used to measure the reaction product.
The study protocol with human lymphocytes isolated from healthy adult peripheral blood was approved by BioEthics Committee of the Institute of Cell Biology of National Academy of Sciences of Ukraine (protocol No 2 from 27 January 2019), and with written consent of donor.
Background: Tetrazolium assays rely on reduction of a dye to a coloured formazan, in cell work by metabolically active cells.

For assay [2], the system named is KB3-1 cells. Description: Fluorescence microscopy of cells, Hoechst-33342 staining. In kind it is cell-based, human. To be noted: 1 µM, 24 h. The protocol:
One can also see giant KB3-1 cells with abnormal nuclei and looser chromatin (Figure 7B). The mitotic catastrophe may occur during or after aberrant mitosis. Mitotic catastrophe has been reported as a special example of apoptosis affecting mitochondrial membrane permeabilization and caspase activation. […] Thus, compound 3.6 induced pro-apoptotic cytomorphological changes in treated KB3-1 cells.
The KB3-1 cells were seeded in 24-well plates at 5 × 10^5/mL and then treated for an additional 24 h with compound […] (1 μM) and doxorubicin (1 μM). Cells were stained with 0.2–0.5 µg/mL of Hoechst-33342 and incubated for 20–30 min before the cell examination. A Zeiss fluorescent microscope (Carl Zeiss, Jena, Germany), AxioImager A1 camera (at 400× magnification), and AxioVision image analysis software Release 4.6.3.0 for Carl Zeis microscopy (Imaging Associates Ltd., Cork, Ireland, UK) were used for cells examination. All microphotographs were additionally analyzed using ImagePro7 software (Media Cybernetics, Rockville, MD, USA).

In assay [3] the test system is M14/ADR-RES/ Melanoma. Description: NCI single-dose screen, M14/ADR-RES. Type of assay: cell-based, human. To be noted: 10 μM, 48 h. The protocol:
Selection for screening based on new derivatives’ ability to add diversity to the NCI small molecules collection and anticancer assays were performed according to the NCI guidelines and protocols previously described. The compounds were added at the mentioned concentration, and the cell cultures were incubated for 48 h.
Anticancer in vitro assay was performed on the human tumor cell lines panel derived from nine neoplastic diseases by the protocol of the Drug Evaluation Branch, National Cancer Institute, Bethesda, MD, USA [44, 45, 46]. Tested compounds were added to the culture at a single concentration (10^−5 M), and the cultures were incubated for 48 h. […] GP% was spectrophotometrically evaluated vs. controls not treated with test agents.

Assay [4] relates to salmon sperm DNA. Description: DNA/methyl green colorimetric (replacement) assay. In kind it is binding. The protocol:
In addition, we used DNA/methyl green colorimetric assay to study the possible interaction of compound 3.6 in DNA. […] This assay was used to measure the displacement of methyl green from DNA by compounds with the ability to intercalate DNA [54].
The capacity of the tested compounds to intercalate into salmon sperm DNA was determined using the methyl green assay. Briefly, salmon sperm DNA (10 mg/mL) was incubated for 1 h at 37 °C with 15 µL of methyl green solution (1 mg/mL in H2O). The compounds were added at concentrations 1 and 10 µM/mL and incubated at 37 °C in the dark for 2 h. Reduction of the absorbance of methyl green at 642 nm induced by the test compounds was measured with a multiplate reader, Plate Reader BioTek Lx80 ( BioTek Instruments, Inc., Winooski, VT, USA). Doxorubicin, a well-known intercalating agent, was used as a positive control.

Assay [5] relates to salmon sperm DNA. Description: Spectroscopic DNA interaction assay (KMnO4 oxidation). Conditions: DNA + compound + KMnO4, time- and concentration-dependent, up to 3 h; binder if >0.05 or <−0.05. In kind it is binding. The text has this:
The method investigates conformational changes in the DNA; for example, when DNA is exposed to an intercalating, alkylation, or other classes of DNA-binding agents. It is based on the oxidative reaction of potassium permanganate with pyrimidine bases. Compounds that interact with DNA distort its duplex structure, thus exposing pyrimidine bases for oxidation by KMnO4, which generates products that can be detected by spectrophotometry. Different classes of DNA-binding compounds can be studied in such a way. […] Net A405 ranged from 0.00 to 0.50 in the presence of the compound, and Net A405 ranged from 0.02 to 0.045 in the control case (Figure 9).
A spectroscopic DNA interaction study was performed as previously described. salmon sperm DNA (Sigma-Aldrich, USA) was diluted in Milli-Q water at 4 °C for 24 h at 1.65 mg/mL. Tested compounds were dissolved in acetone. After 1 h of incubation of DNA and compound, KMnO4 was added to a final concentration of 0.3 mM and the absorbance at 405 nm was measured (Absorbance Reader BioTek ELx800) (BioTek Instruments, Inc., Winooski, VT, USA) in different periods up to 3 h. Appropriate controls of DNA alone and compound alone were included, and these Abs values were subtracted from the test sample to provide the net change in absorbance (NetAbs). […]

As a reminder, the pIC50 is the IC50 on a negative log10 scale, so that one unit is a factor of ten.

Consider `COc1cccc2c1C(=O)c1c(O)c3c(c(O)c1C2=O)C[C@@](O)(C(=O)CO)C[C@@H]3O[C@H]1C[C@H](N)[C@H](O)[C@H](C)O1` [Doxorubicin, doxorubicin, reference compound], for which the pIC50 in assay [1] (Homo sapiens, Lymphocyte) is 6.00 to 6.10; in assay [1] (listed as Dox), 6.00. In addition, the cytomorphological alterations entry in assay [2] was “chromatin condensation and membrane blabbing”. The “Most Sensitive Cell Line Growth, % (M14/ADR-RES/ Melanoma)” value in assay [3] is recorded as −71.60%. Also, in assay [4] (10 µM, compared with compound 3.6), the methyl green replacement entry was “two times more effective”.

In the case of `O=C1C2=C(C(=O)c3ccccc31)C(CCc1ccccc1)c1sc(=O)[nH]c1S2` (stereo not drawn) [Compound 3.6, 11-Phenethyl-3,11-dihydro-2H-benzo[6,7]thiochromeno[2,3-d]thiazole-2,5,10-trione], in assay [1] (Lymphocyte), the pIC50 is 4.23. Moreover, in assay [2], the cytomorphological alterations entry was “shrunk, with condensed chromatin and membrane blabbing”. In addition, the “percentage of methyl green replacement” value in assay [4] (dependent on concentration (1 and 10 µM)) is recorded as 35.00 to 39.64%. Further, the “Net A405 (net change in absorbance)” value in assay [5] fell in the range of 0.00 to 0.50.
